Results taken from article PMC3119665, “A New Drug Design Targeting the Adenosinergic System for Huntington's Disease” (PLoS ONE, 2011).

Tests used:
[1] = target: T1, Lipoxygenase 15-LO (Oryctolagus cuniculus, UniProt P12530); assay: Radioligand binding panel (Table S1); design: species or system rabbit; settings: 10 μM T1-11, n 2
T1 construct: purchased MDS Pharma Services Taiwan

[2] = test system: Atrial Natriuretic Factor (ANF); assay: Radioligand binding panel (Table S1); design: species or system guinea pig; settings: 10 μM T1-11, n 2
[3] = test system: Thyroid Hormone; assay: Radioligand binding panel (Table S1); design: species or system rat; settings: 10 μM T1-11, n 2
[4] = target: T2, Orphanin ORL1 (Homo sapiens, UniProt P41146); assay: Radioligand binding panel (Table S1); settings: 10 μM T1-11, n 2
T2 construct: purchased MDS Pharma Services Taiwan

[5] = test system: Glutamate, AMPA; assay: Radioligand binding panel (Table S1); design: species or system rat; settings: 10 μM T1-11, n 2
[6] = target: T3, Endothelin ETB (Homo sapiens, UniProt P24530); assay: Radioligand binding panel (Table S1); settings: 10 μM T1-11, n 2
T3 construct: purchased MDS Pharma Services Taiwan

[7] = test system: GABAA, Chloride Channel, TBOB; assay: Radioligand binding panel (Table S1); design: species or system rat; settings: 10 μM T1-11, n 2
[8] = target: T4, Dopamine D2S (Homo sapiens, UniProt P14416); assay: Radioligand binding panel (Table S1); settings: 10 μM T1-11, n 2
T4 construct: purchased MDS Pharma Services Taiwan

[9] = target: T5, Growth Hormone, Secretagogue (GHS, Ghrelin) (Homo sapiens, UniProt Q92847); assay: Radioligand binding panel (Table S1); settings: 10 μM T1-11, n 2
T5 construct: purchased MDS Pharma Services Taiwan

[10] = target: T6, Somatostatin sst2 (Homo sapiens, UniProt P30874); assay: Radioligand binding panel (Table S1); settings: 10 μM T1-11, n 2
T6 construct: purchased MDS Pharma Services Taiwan

[11] = target: T7, Urotensin II (Homo sapiens, UniProt Q9UKP6); assay: Radioligand binding panel (Table S1); settings: 10 μM T1-11, n 2
T7 construct: purchased MDS Pharma Services Taiwan

[12] = target: T8, Dopamine D5 (Homo sapiens, UniProt P21918); assay: Radioligand binding panel (Table S1); settings: 10 μM T1-11, n 2
T8 construct: purchased MDS Pharma Services Taiwan

[13] = target: T9, Adrenergic β 1 (Homo sapiens, UniProt P08588); assay: Radioligand binding panel (Table S1); settings: 10 μM T1-11, n 2
T9 construct: purchased MDS Pharma Services Taiwan

[14] = test system: Calcium Channel L-Type, Phenylalkylamin.; assay: Radioligand binding panel (Table S1); design: species or system rat; settings: 10 μM T1-11, n 2
[15] = target: T10, Opiate κ (OP2, KOP) (Homo sapiens, UniProt P41145); assay: Radioligand binding panel (Table S1); settings: 10 μM T1-11, n 2
T10 construct: purchased MDS Pharma Services Taiwan

[16] = test system: Nicotinic Acetylcholine; assay: Radioligand binding panel (Table S1); design: species or system human; settings: 10 μM T1-11, n 2
[17] = target: T11, Serotonin (5-Hydroxytryptamine) 5-HT3 (Homo sapiens, UniProt P46098); assay: Radioligand binding panel (Table S1); settings: 10 μM T1-11, n 2
T11 construct: purchased MDS Pharma Services Taiwan

[18] = target: T12, Galanin GAL2 (Homo sapiens, UniProt O43603); assay: Radioligand binding panel (Table S1); settings: 10 μM T1-11, n 2
T12 construct: purchased MDS Pharma Services Taiwan

[19] = target: T13, Prostanoid DP (Homo sapiens, UniProt Q13258); assay: Radioligand binding panel (Table S1); settings: 10 μM T1-11, n 2
T13 construct: purchased MDS Pharma Services Taiwan

[20] = test system: Insulin; assay: Radioligand binding panel (Table S1); design: species or system rat; settings: 10 μM T1-11, n 2
[21] = target: T14, Progesterone PR-B (Homo sapiens, UniProt P06401); assay: Radioligand binding panel (Table S1); settings: 10 μM T1-11, n 2
T14 construct: purchased MDS Pharma Services Taiwan

[22] = T1-11 level in the brain after intraperitoneal injection; format: in vivo, mice; settings: mouse, ip, 5 mg/kg, 30 min after the intraperitoneal injection, n = 4, mean ± s.e.m., read-out: T1-11 detected in the brain
[23] = target: T15, Neurotensin NT 1 (Homo sapiens, UniProt P30989); assay: Radioligand binding panel (Table S1); settings: 10 μM T1-11, n 2
T15 construct: purchased MDS Pharma Services Taiwan

[24] = target: T16, Adrenergic α 1D (Homo sapiens, UniProt P25100); assay: Radioligand binding panel (Table S1); settings: 10 μM T1-11, n 2
T16 construct: purchased MDS Pharma Services Taiwan

[25] = test system: Adrenergic β, Non-Selective; assay: Radioligand binding panel (Table S1); design: species or system rat; settings: 10 μM T1-11, n 2
[26] = target: T17, Chemokine CCR1 (Homo sapiens, UniProt P32246); assay: Radioligand binding panel (Table S1); settings: 10 μM T1-11, n 2
T17 construct: purchased MDS Pharma Services Taiwan

[27] = target: T18, Endothelin ETA (Homo sapiens, UniProt P25101); assay: Radioligand binding panel (Table S1); settings: 10 μM T1-11, n 2
T18 construct: purchased MDS Pharma Services Taiwan

[28] = target: T19, Serotonin (5-Hydroxytryptamine) 5-HT2A (Homo sapiens, UniProt P28223); assay: Radioligand binding panel (Table S1); settings: 10 μM T1-11, n 2
T19 construct: purchased MDS Pharma Services Taiwan
Description: Radoligand binding assays were performed by MDS Pharma Services Taiwan (Taipei, Taiwan) using standard binding protocols. For the binding assay of the A2AR [67], membrane proteins collected from HEK293 cells overexpressing the human A2AR were incubated in reaction buffer [50 mM Tris-HCl (pH 7.4), 10 mM MgCl2, 1 mM EDTA, and 2 U/mL adenosine deaminase] containing ^3H-CGS21680 (50 nM) for 90 min at 25°C. Nonspecific binding was assessed in the presence of 50 µM adenosine- 5′-N-ethylcarboxamide. […] Nonspecific binding was assessed in the presence of 1 µM IB-MECA (Tocris Bioscience, Ellisville, MS, USA).

[29] = target: T20, Melanocortin MC1 (Homo sapiens, UniProt Q01726); assay: Radioligand binding panel (Table S1); settings: 10 μM T1-11, n 2
T20 construct: purchased MDS Pharma Services Taiwan

[30] = target: T21, Cholecystokinin CCK. (CCK8) (Homo sapiens, UniProt P32239); assay: Radioligand binding panel (Table S1); settings: 10 μM T1-11, n 2
T21 construct: purchased MDS Pharma Services Taiwan

[31] = target: T22, N-Formyl Peptide Receptor-like, FPRL1 (Homo sapiens, UniProt P25090); assay: Radioligand binding panel (Table S1); settings: 10 μM T1-11, n 2
T22 construct: purchased MDS Pharma Services Taiwan

[32] = target: T23, Transporter, Serotonin (5-Hydroxytryptamine) (SERT) (Homo sapiens, UniProt P31645); assay: Radioligand binding panel (Table S1); settings: 10 μM T1-11, n 2
T23 construct: purchased MDS Pharma Services Taiwan

[33] = target: T24, Tachykinin NK3 (Homo sapiens, UniProt P29371); assay: Radioligand binding panel (Table S1); settings: 10 μM T1-11, n 2
T24 construct: purchased MDS Pharma Services Taiwan

[34] = target: T25, Chemokine CXCR2 (IL-8RB) (Homo sapiens, UniProt P25025); assay: Radioligand binding panel (Table S1); settings: 10 μM T1-11, n 2
T25 construct: purchased MDS Pharma Services Taiwan

[35] = test system: Thyrotropin Releasing Hormone (TRH); assay: Radioligand binding panel (Table S1); design: species or system rat; settings: 10 μM T1-11, n 2

T7 sequence (Q9UKP6 whole entry): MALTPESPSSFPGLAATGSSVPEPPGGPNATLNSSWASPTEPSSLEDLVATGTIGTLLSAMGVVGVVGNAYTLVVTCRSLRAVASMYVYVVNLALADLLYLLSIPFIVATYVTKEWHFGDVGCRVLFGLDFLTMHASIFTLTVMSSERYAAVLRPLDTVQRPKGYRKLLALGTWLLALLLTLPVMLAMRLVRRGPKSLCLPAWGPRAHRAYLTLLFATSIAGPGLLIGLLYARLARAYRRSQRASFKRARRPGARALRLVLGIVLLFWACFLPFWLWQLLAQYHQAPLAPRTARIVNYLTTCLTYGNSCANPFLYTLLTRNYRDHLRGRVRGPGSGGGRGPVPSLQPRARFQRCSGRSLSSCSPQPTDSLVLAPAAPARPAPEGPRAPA
T25 sequence (P25025 whole entry): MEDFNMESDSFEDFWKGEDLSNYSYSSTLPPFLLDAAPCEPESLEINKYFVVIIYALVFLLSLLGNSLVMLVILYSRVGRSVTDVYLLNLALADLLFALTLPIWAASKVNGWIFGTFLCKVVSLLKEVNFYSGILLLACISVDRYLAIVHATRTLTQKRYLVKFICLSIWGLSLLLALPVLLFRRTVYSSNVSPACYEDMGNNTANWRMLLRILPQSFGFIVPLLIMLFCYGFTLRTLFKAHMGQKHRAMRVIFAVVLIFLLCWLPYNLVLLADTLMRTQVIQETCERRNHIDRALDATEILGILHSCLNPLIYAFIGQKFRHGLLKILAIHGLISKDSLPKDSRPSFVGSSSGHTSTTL
T2 sequence (P41146 whole entry): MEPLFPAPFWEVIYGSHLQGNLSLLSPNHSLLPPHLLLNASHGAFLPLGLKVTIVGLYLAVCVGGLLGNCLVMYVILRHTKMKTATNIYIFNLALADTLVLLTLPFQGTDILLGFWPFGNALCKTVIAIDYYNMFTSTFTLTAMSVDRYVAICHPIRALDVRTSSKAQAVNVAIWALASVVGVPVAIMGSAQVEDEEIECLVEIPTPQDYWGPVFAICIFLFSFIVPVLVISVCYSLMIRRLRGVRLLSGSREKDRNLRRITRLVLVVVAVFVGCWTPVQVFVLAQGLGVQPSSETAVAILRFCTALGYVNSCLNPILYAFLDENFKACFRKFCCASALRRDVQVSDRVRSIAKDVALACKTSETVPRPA
T1 sequence (P12530 whole entry): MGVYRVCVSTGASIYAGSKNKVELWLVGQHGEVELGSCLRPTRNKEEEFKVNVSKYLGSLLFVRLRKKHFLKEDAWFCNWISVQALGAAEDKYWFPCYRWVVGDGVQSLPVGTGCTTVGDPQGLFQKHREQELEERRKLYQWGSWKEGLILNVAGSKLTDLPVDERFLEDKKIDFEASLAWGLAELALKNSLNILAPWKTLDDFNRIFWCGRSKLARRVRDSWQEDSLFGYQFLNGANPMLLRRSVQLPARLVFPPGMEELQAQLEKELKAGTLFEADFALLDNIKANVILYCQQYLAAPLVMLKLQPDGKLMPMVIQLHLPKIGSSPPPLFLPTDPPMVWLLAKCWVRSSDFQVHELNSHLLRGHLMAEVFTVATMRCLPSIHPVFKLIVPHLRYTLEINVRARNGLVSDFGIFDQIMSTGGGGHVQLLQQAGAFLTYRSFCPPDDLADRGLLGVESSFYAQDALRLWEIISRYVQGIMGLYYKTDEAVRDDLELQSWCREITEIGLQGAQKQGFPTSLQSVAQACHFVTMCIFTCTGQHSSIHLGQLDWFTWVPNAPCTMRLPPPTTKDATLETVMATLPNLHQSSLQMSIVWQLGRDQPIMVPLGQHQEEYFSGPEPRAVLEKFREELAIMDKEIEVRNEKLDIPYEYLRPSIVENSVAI
T13 sequence (Q13258 whole entry): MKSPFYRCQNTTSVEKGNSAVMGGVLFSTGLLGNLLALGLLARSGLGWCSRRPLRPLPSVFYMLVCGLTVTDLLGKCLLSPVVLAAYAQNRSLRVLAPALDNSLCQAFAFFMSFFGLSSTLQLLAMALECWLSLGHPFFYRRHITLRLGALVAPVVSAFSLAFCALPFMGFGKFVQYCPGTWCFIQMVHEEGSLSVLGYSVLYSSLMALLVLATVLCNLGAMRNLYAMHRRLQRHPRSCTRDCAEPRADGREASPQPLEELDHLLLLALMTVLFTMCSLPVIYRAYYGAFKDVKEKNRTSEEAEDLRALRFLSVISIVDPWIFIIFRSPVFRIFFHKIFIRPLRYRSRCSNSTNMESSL
T5 sequence (Q92847 whole entry): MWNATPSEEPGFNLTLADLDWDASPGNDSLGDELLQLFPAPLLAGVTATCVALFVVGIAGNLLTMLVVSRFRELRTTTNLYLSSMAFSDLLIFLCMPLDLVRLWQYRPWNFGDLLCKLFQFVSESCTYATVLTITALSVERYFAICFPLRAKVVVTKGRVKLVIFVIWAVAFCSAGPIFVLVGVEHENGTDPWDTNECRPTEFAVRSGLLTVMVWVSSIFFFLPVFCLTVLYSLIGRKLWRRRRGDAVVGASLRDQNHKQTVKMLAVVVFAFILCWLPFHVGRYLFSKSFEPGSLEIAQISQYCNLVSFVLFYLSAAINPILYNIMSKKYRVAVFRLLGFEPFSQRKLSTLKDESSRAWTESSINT
T17 sequence (P32246 whole entry): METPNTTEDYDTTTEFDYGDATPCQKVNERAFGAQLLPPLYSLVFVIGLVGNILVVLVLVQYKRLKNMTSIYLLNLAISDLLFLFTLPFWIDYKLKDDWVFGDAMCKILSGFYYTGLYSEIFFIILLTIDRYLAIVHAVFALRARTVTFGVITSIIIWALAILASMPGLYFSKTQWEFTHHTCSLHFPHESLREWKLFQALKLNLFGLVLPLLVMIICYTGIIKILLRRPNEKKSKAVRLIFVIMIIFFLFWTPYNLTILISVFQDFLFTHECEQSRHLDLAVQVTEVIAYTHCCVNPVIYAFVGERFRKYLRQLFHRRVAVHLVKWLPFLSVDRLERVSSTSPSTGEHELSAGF
T8 sequence (P21918 whole entry): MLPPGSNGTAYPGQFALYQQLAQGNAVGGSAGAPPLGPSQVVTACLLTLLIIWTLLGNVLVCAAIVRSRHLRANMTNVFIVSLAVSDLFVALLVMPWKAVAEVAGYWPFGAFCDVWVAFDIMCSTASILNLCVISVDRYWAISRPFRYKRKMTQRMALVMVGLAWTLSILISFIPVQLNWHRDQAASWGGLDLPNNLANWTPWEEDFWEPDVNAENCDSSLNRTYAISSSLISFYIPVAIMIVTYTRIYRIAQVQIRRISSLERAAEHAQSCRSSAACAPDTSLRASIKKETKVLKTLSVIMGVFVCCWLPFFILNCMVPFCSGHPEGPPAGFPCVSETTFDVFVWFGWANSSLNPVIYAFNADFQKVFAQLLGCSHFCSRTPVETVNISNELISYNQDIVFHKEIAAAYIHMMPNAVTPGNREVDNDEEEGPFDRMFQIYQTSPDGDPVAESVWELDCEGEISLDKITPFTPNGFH
T10 sequence (P41145 whole entry): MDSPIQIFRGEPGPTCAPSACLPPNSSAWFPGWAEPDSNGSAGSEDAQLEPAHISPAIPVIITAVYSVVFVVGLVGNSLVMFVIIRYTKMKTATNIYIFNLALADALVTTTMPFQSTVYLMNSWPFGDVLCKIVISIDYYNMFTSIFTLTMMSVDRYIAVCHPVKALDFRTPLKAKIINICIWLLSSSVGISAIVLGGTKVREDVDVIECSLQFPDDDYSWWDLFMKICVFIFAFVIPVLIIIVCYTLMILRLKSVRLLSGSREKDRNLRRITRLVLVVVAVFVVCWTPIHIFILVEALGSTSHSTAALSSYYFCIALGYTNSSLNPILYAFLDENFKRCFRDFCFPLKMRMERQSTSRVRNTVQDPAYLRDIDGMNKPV
T12 sequence (O43603 whole entry): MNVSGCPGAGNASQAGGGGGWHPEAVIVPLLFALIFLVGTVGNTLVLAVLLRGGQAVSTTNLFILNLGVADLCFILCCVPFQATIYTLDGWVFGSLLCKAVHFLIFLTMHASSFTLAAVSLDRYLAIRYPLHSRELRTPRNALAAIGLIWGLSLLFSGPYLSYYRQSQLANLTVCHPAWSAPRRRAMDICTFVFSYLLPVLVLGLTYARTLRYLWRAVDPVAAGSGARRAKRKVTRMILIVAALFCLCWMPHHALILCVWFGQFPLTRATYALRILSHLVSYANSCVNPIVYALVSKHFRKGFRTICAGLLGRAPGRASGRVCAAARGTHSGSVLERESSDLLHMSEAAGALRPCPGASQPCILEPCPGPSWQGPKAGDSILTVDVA
T20 sequence (Q01726 whole entry): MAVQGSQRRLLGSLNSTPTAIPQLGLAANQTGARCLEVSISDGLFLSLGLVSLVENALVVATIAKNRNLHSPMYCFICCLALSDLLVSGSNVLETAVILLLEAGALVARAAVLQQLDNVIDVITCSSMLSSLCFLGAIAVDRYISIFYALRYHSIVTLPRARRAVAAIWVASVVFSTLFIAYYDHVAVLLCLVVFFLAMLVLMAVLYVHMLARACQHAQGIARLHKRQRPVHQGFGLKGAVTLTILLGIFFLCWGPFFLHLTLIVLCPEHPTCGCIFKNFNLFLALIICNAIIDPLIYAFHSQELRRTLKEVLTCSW
T19 sequence (P28223 whole entry): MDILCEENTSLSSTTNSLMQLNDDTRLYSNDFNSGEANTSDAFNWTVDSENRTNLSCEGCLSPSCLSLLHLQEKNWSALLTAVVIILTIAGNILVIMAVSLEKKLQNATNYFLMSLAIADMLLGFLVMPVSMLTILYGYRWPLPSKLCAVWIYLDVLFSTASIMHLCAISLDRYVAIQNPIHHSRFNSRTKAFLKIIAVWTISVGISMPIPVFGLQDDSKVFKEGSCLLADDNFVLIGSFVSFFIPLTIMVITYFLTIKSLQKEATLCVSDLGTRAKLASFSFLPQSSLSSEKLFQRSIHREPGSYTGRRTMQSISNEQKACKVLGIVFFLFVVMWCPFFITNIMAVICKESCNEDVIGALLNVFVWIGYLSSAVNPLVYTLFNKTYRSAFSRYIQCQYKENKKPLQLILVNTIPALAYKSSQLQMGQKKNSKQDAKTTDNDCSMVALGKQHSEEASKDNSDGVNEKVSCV

OC[C@H]1O[C@@H](n2cnc3c(NCc4ccc(O)cc4)ncnc32)[C@H](O)[C@@H]1O [T1-11, N ^6-(4-hydroxybenzyl)adenine riboside]
inhibition at 10 µM [1]: 14%
% Inhibition [2]: 5%
% Inhibition [3]: -9%
inhibition at 10 µM [4]: 10%
% Inhibition [5]: -9%
inhibition at 10 µM [6]: 2%
% Inhibition [7]: -3%
inhibition at 10 µM [8]: 10%
inhibition at 10 µM [9]: -4%
inhibition at 10 µM [10]: 9%
inhibition at 10 µM [11]: 6%
inhibition at 10 µM [12]: 2%
inhibition at 10 µM [13]: 7%
% Inhibition [14]: -7%
inhibition at 10 µM [15]: 6%
% Inhibition [16]: 6%
inhibition at 10 µM [17]: 5%
inhibition at 10 µM [18]: 0%
inhibition at 10 µM [19]: 17%
% Inhibition [20]: 4%
inhibition at 10 µM [21]: -8%
concentration at 30 min [22]: 0.12 ± 0.01 ng/g
inhibition at 10 µM [23]: 11%
inhibition at 10 µM [24]: 8%
% Inhibition [25]: 10%
inhibition at 10 µM [26]: -3%
inhibition at 10 µM [27]: 3%
inhibition at 10 µM [28]: 19%
inhibition at 10 µM [29]: 3%
inhibition at 10 µM [30]: -5%
inhibition at 10 µM [31]: 5%
inhibition at 10 µM [32]: 5%
inhibition at 10 µM [33]: -3%
inhibition at 10 µM [34]: 0%
% Inhibition [35]: -4%
